These results are taken from paper PMC5218480 (PLoS ONE, 2017).

The assay deals with MV-4-11 cells. Nature of the assay: Gene expression microarray analysis (Affymetrix PrimeView) and GSEA. The assay is classed as cell-based, human. More on the design: RFU PODN (11730768_x_at) / Fold change /veh PODN (11730768_x_at) / RFU LINC00158 (11744669_a_at) / Fold change /veh LINC00158 (11744669_a_at) / RFU DUSP10 (11751237_a_at) / Fold change /veh DUSP10 (11751237_a_at) / RFU ID3 (11757404_x_at) / Fold change /veh ID3 (11757404_x_at) / RFU PLEKHG5 (11737974_s_at) / Fold change /veh PLEKHG5 (11737974_s_at) / RFU LRRC4B (11730491_at) / Fold change /veh LRRC4B (11730491_at) / RFU GIMAP4 (11747438_a_at) / Fold change /veh GIMAP4 (11747438_a_at) / RFU KRT8 (11758183_x_at) / Fold change /veh KRT8 (11758183_x_at) / RFU CNN1 (11734310_a_at) / Fold change /veh CNN1 (11734310_a_at) / RFU VPS37D (11726825_at) / Fold change /veh VPS37D (11726825_at) / RFU C10orf10 (11716522_x_at) / Fold change /veh C10orf10 (11716522_x_at) / RFU KIR2DL2 /// KIR2DL4 /// KIR2DL5A /// KIR2DL5B /// KIR2DS1 /// KIR2DS2 /// KIR2DS3 /// KIR2DS4 /// KIR3DL3 /// KIR3DL3 /// KIR3DS1 (11738374_at) / Fold change /veh KIR2DL2 /// KIR2DL4 /// KIR2DL5A /// KIR2DL5B /// KIR2DS1 /// KIR2DS2 /// KIR2DS3 /// KIR2DS4 /// KIR3DL3 /// KIR3DL3 /// KIR3DS1 (11738374_at) / RFU C1QL1 (11718748_at) / Fold change /veh C1QL1 (11718748_at) / RFU TMPRSS4 (11747572_a_at) / Fold change /veh TMPRSS4 (11747572_a_at) / RFU HAMP (11756126_x_at) / Fold change /veh HAMP (11756126_x_at) / RFU RNFT2 (11725882_a_at) / Fold change /veh RNFT2 (11725882_a_at) / RFU NR4A2 (11747474_a_at) / Fold change /veh NR4A2 (11747474_a_at) / RFU ABCC12 (11746883_a_at) / Fold change /veh ABCC12 (11746883_a_at) / RFU TMEM136 (11760407_x_at) / Fold change /veh TMEM136 (11760407_x_at) / RFU CLDN22 /// WWC2 (11732394_at) / Fold change /veh CLDN22 /// WWC2 (11732394_at) / RFU HLA-DPB1 (11760878_x_at) / Fold change /veh HLA-DPB1 (11760878_x_at) / RFU SPINT1 (11716480_a_at) / Fold change /veh SPINT1 (11716480_a_at) / RFU GAP43 (11754022_s_at) / Fold change /veh GAP43 (11754022_s_at) / RFU A4GNT (11735810_at) / Fold change /veh A4GNT (11735810_at) / RFU PRB3 (11715151_x_at) / Fold change /veh PRB3 (11715151_x_at) / RFU TUBB4B (11761932_at) / Fold change /veh TUBB4B (11761932_at) / RFU CAPN14 (11732068_a_at) / Fold change /veh CAPN14 (11732068_a_at) / RFU TMCC2 (11721928_a_at) / Fold change /veh TMCC2 (11721928_a_at) / RFU IRGQ (11745062_a_at) / Fold change /veh IRGQ (11745062_a_at) / RFU FAM174B (11720279_a_at) / Fold change /veh FAM174B (11720279_a_at) / RFU TMPRSS4 (11748680_a_at) / Fold change /veh TMPRSS4 (11748680_a_at) / RFU FAM212B (11763350_a_at) / Fold change /veh FAM212B (11763350_a_at) / RFU PLEKHG5 (11743358_a_at) / Fold change /veh PLEKHG5 (11743358_a_at) / RFU ZSCAN30 (11745921_a_at) / Fold change /veh ZSCAN30 (11745921_a_at) / RFU CMKLR1 (11741424_a_at) / Fold change /veh CMKLR1 (11741424_a_at) / RFU LOC101060620 /// MAPK8IP1 (11723275_at) / Fold change /veh LOC101060620 /// MAPK8IP1 (11723275_at) / RFU SPTSSB (11747773_x_at) / Fold change /veh SPTSSB (11747773_x_at) / RFU PRSS12 (11739890_at) / Fold change /veh PRSS12 (11739890_at) / RFU BIN1 (11741810_x_at) / Fold change /veh BIN1 (11741810_x_at) / RFU WNT11 (11732464_a_at) / Fold change /veh WNT11 (11732464_a_at) / RFU C10orf10 (11716521_a_at) / Fold change /veh C10orf10 (11716521_a_at) / RFU C5orf56 (11738089_at) / Fold change /veh C5orf56 (11738089_at) / RFU CYB561 (11721691_x_at) / Fold change /veh CYB561 (11721691_x_at) / RFU ANKRD19P (11752326_a_at) / Fold change /veh ANKRD19P (11752326_a_at) / RFU OR2T12 /// OR2T33 /// OR2T8 (11738714_s_at) / Fold change /veh OR2T12 /// OR2T33 /// OR2T8 (11738714_s_at) / RFU VCAN (11748164_a_at) / Fold change /veh VCAN (11748164_a_at) / RFU JSRP1 (11732532_at) / Fold change /veh JSRP1 (11732532_at) / RFU KRTAP10-11 (11738290_x_at) / Fold change /veh KRTAP10-11 (11738290_x_at) / RFU MYO3A (11730013_a_at) / Fold change /veh MYO3A (11730013_a_at) / RFU EBF3 (11725865_a_at) / Fold change /veh EBF3 (11725865_a_at) / RFU CAMK2N1 (11719241_x_at) / Fold change /veh CAMK2N1 (11719241_x_at) / RFU C5orf56 (11738088_a_at) / Fold change /veh C5orf56 (11738088_a_at) / RFU OLFML3 (11715873_a_at) / Fold change /veh OLFML3 (11715873_a_at) / RFU LOC100653217 /// NTM (11731650_a_at) / Fold change /veh LOC100653217 /// NTM (11731650_a_at) / RFU MAPK11 (11762145_a_at) / Fold change /veh MAPK11 (11762145_a_at) / RFU FIZ1 (11724087_x_at) / Fold change /veh FIZ1 (11724087_x_at) / RFU OASL (11726364_x_at) / Fold change /veh OASL (11726364_x_at) / RFU SOX15 (11748057_x_at) / Fold change /veh SOX15 (11748057_x_at) / RFU CD79A (11719716_a_at) / Fold change /veh CD79A (11719716_a_at) / RFU HIST1H1D (11736915_at) / Fold change /veh HIST1H1D (11736915_at) / RFU CASKIN2 (11723855_a_at) / Fold change /veh CASKIN2 (11723855_a_at) / RFU LOC730098 (11760151_x_at) / Fold change /veh LOC730098 (11760151_x_at) / RFU OR4N2 (11742367_at) / Fold change /veh OR4N2 (11742367_at) / RFU PRRT2 (11749266_a_at) / Fold change /veh PRRT2 (11749266_a_at) / RFU SNX32 (11753110_a_at) / Fold change /veh SNX32 (11753110_a_at) / RFU CDHR5 (11726645_a_at) / Fold change /veh CDHR5 (11726645_a_at) / RFU RCAN1 (11760418_a_at) / Fold change /veh RCAN1 (11760418_a_at) / RFU FAM167A (11723789_a_at) / Fold change /veh FAM167A (11723789_a_at) / RFU FAM26E (11764081_at) / Fold change /veh FAM26E (11764081_at) / RFU ISYNA1 (11749810_s_at) / Fold change /veh ISYNA1 (11749810_s_at) / RFU ACY1 (11761880_at) / Fold change /veh ACY1 (11761880_at) / RFU 11764098_at / Fold change /veh 11764098_at / RFU SAMD14 (11745864_x_at) / Fold change /veh SAMD14 (11745864_x_at) / RFU NPB (11741838_a_at) / Fold change /veh NPB (11741838_a_at) / RFU TMPRSS6 (11731388_a_at) / Fold change /veh TMPRSS6 (11731388_a_at) / RFU KRTAP10-2 (11738614_at) / Fold change /veh KRTAP10-2 (11738614_at) / RFU ARHGAP8 /// PRR5-ARHGAP8 (11727945_x_at) / Fold change /veh ARHGAP8 /// PRR5-ARHGAP8 (11727945_x_at) / RFU KRTAP5-7 /// NADSYN1 (11734609_at) / Fold change /veh KRTAP5-7 /// NADSYN1 (11734609_at) / RFU RASL12 (11751679_a_at) / Fold change /veh RASL12 (11751679_a_at) / RFU CDKN2B (11736163_a_at) / Fold change /veh CDKN2B (11736163_a_at) / RFU PRF1 (11729649_at) / Fold change /veh PRF1 (11729649_at) / RFU, ZNF638 /// ZNF638-IT1 / Fold change vs veh, ZNF638 /// ZNF638-IT1 / RFU, PANK3 / Fold change vs veh, PANK3 / RFU, SH3YL1 / Fold change vs veh, SH3YL1 / RFU, ZEB2 / Fold change vs veh, ZEB2 / RFU, NRIP1 / Fold change vs veh, NRIP1 / RFU, PTTG1IP / Fold change vs veh, PTTG1IP / RFU, CAPN2 / Fold change vs veh, CAPN2 / RFU, MED14 / Fold change vs veh, MED14 / RFU, SNORA58 / Fold change vs veh, SNORA58 / RFU, C1orf63 / Fold change vs veh, C1orf63 / RFU, LRRFIP1 / Fold change vs veh, LRRFIP1 / RFU, NDUFAF7 / Fold change vs veh, NDUFAF7 / RFU, SLC12A2 / Fold change vs veh, SLC12A2 / RFU, IBTK / Fold change vs veh, IBTK / RFU, ESF1 / Fold change vs veh, ESF1 / Fold change vs veh, TMEM50B / RFU, TAOK1 / Fold change vs veh, TAOK1 / RFU, ACBD3 / Fold change vs veh, ACBD3 / RFU, TMA16 / Fold change vs veh, TMA16 / RFU, RWDD3 / Fold change vs veh, RWDD3 / RFU, BCAT1 / Fold change vs veh, BCAT1 / RFU, EDEM3 / Fold change vs veh, EDEM3 / RFU, TMEM33 / Fold change vs veh, TMEM33 / RFU, WDR75 / Fold change vs veh, WDR75 / RFU, AHCTF1 / Fold change vs veh, AHCTF1 / RFU, TFRC / Fold change vs veh, TFRC / RFU, ZDHHC17 / Fold change vs veh, ZDHHC17 / RFU, NOM1 / Fold change vs veh, NOM1 / RFU, ARL8B / Fold change vs veh, ARL8B / RFU, ZBTB11 / Fold change vs veh, ZBTB11 / RFU, TAMM41 / Fold change vs veh, TAMM41 / RFU, KIAA1704 /// LOC100996395 / Fold change vs veh, KIAA1704 /// LOC100996395 / RFU, ING1 / Fold change vs veh, ING1 / RFU, TRMT61B / Fold change vs veh, TRMT61B / RFU, FUBP3 / Fold change vs veh, FUBP3 / RFU, TP53 / Fold change vs veh, TP53 / RFU, TNKS2 / Fold change vs veh, TNKS2 / RFU, ZFP14 / Fold change vs veh, ZFP14 / RFU, ACTR2 / Fold change vs veh, ACTR2 / RFU, PPP3R1 / Fold change vs veh, PPP3R1 / RFU, PIK3R1 / Fold change vs veh, PIK3R1 / RFU, HNRNPA1 / Fold change vs veh, HNRNPA1 / RFU, RNF170 / Fold change vs veh, RNF170 / RFU, ZNF28 / Fold change vs veh, ZNF28 / RFU, RNGTT / Fold change vs veh, RNGTT / RFU, OGT / Fold change vs veh, OGT / RFU, BRD1 / Fold change vs veh, BRD1 / RFU, MARS / Fold change vs veh, MARS / RFU, ZNF655 / Fold change vs veh, ZNF655 / RFU, FAHD1 / Fold change vs veh, FAHD1 / RFU, BDP1 / Fold change vs veh, BDP1 / RFU, LRRCC1 / Fold change vs veh, LRRCC1 / RFU, ARID1A / Fold change vs veh, ARID1A / RFU, ZNF146 / Fold change vs veh, ZNF146 / RFU, ZNF330 / Fold change vs veh, ZNF330 / RFU, GPN3 / Fold change vs veh, GPN3 / RFU, C9orf123 / Fold change vs veh, C9orf123 / RFU, N4BP2L2 / Fold change vs veh, N4BP2L2 / RFU, ARFIP1 / Fold change vs veh, ARFIP1 / RFU, FAM179B / Fold change vs veh, FAM179B / RFU, BCL10 / Fold change vs veh, BCL10 / RFU, UHRF1BP1L / Fold change vs veh, UHRF1BP1L / RFU, BET1 / Fold change vs veh, BET1 / RFU, CNOT2 / Fold change vs veh, CNOT2 / RFU, ZNF268 / Fold change vs veh, ZNF268 / Fold change vs veh, ZNF507 / RFU, DGCR2 / Fold change vs veh, DGCR2 / RFU, WDSUB1 / Fold change vs veh, WDSUB1 / Fold change vs veh, HSP90B1 /// MIR3652 / RFU, ADSS / Fold change vs veh, ADSS / RFU, GK / Fold change vs veh, GK / RFU, ZNF148 / Fold change vs veh, ZNF148 / RFU, TAF9 / Fold change vs veh, TAF9 / RFU, SLC1A5 / Fold change vs veh, SLC1A5 / RFU, SLMO2 / Fold change vs veh, SLMO2 / RFU, ABCC4 / Fold change vs veh, ABCC4 / RFU, LOC101060439 /// RAP1B / Fold change vs veh, LOC101060439 /// RAP1B / RFU, RFX7 / Fold change vs veh, RFX7 / RFU, GTPBP10 / Fold change vs veh, GTPBP10 / RFU, CNEP1R1 / Fold change vs veh, CNEP1R1 / RFU, BIVM-ERCC5 /// ERCC5 / Fold change vs veh, BIVM-ERCC5 /// ERCC5 / RFU, ILF3 / Fold change vs veh, ILF3 / RFU 11762660_at / Fold change /veh 11762660_at / RFU VCAN (11757783_s_at) / Fold change /veh VCAN (11757783_s_at) / RFU DDX43 (11728927_at) / Fold change /veh DDX43 (11728927_at) / RFU KRT8 (11758188_x_at) / Fold change /veh KRT8 (11758188_x_at) / RFU NKD1 (11759106_at) / Fold change /veh NKD1 (11759106_at) / RFU SRD5A1 (11742802_a_at) / Fold change /veh SRD5A1 (11742802_a_at) / RFU TPSAB1 /// TPSB2 (11721975_s_at) / Fold change /veh TPSAB1 /// TPSB2 (11721975_s_at) / RFU GSTM3 (11746129_a_at) / Fold change /veh GSTM3 (11746129_a_at) / RFU IL23R (11737362_x_at) / Fold change /veh IL23R (11737362_x_at) / RFU TMEM51 (11727254_a_at) / Fold change /veh TMEM51 (11727254_a_at) / RFU PIWIL2 (11732686_x_at) / Fold change /veh PIWIL2 (11732686_x_at) / RFU ORM1 (11744905_x_at) / Fold change /veh ORM1 (11744905_x_at) / RFU CCDC152 (11743942_at) / Fold change /veh CCDC152 (11743942_at) / RFU ECM1 (11717891_a_at) / Fold change /veh ECM1 (11717891_a_at) / RFU IL23R (11748794_a_at) / Fold change /veh IL23R (11748794_a_at) / RFU TNFAIP8L3 (11732012_x_at) / Fold change /veh TNFAIP8L3 (11732012_x_at) / RFU MBOAT4 (11741988_at) / Fold change /veh MBOAT4 (11741988_at) / RFU 11764193_at / Fold change /veh 11764193_at / RFU TMEM53 (11763286_at) / Fold change /veh TMEM53 (11763286_at) / RFU MAGEB2 (11727129_at) / Fold change /veh MAGEB2 (11727129_at) / RFU TMEM200A (11744735_a_at) / Fold change /veh TMEM200A (11744735_a_at) / RFU CCDC152 (11751479_a_at) / Fold change /veh CCDC152 (11751479_a_at) / RFU FAM211A (11726209_a_at) / Fold change /veh FAM211A (11726209_a_at) / RFU RGS16 (11746705_a_at) / Fold change /veh RGS16 (11746705_a_at) / RFU VCAN (11755009_s_at) / Fold change /veh VCAN (11755009_s_at) / RFU RHOB (11743442_s_at) / Fold change /veh RHOB (11743442_s_at) / RFU RGS16 (11720943_a_at) / Fold change /veh RGS16 (11720943_a_at) / RFU RGS16 (11720944_at) / Fold change /veh RGS16 (11720944_at) / RFU, VPS4B / Fold change vs veh, VPS4B / RFU, CREB1 / Fold change vs veh, CREB1 / RFU, DNAJC13 / Fold change vs veh, DNAJC13 / RFU, GNAQ / Fold change vs veh, GNAQ / RFU, CDK5R1 / Fold change vs veh, CDK5R1 / RFU, ZRANB3 / Fold change vs veh, ZRANB3 / RFU, CUL4A / Fold change vs veh, CUL4A / RFU, CCNY / Fold change vs veh, CCNY / RFU, UFL1 / Fold change vs veh, UFL1 / RFU, COG3 / Fold change vs veh, COG3 / RFU, DIAPH2 / Fold change vs veh, DIAPH2 / RFU, SKA2 / Fold change vs veh, SKA2 / RFU, AFF3 / Fold change vs veh, AFF3 / RFU, LMF1 / Fold change vs veh, LMF1 / RFU, IPO11 / Fold change vs veh, IPO11 / RFU, DFFB / Fold change vs veh, DFFB / RFU, FOXP1 / Fold change vs veh, FOXP1 / RFU, CARD8 / Fold change vs veh, CARD8 / RFU, STRN3 / Fold change vs veh, STRN3 / RFU, ADK / Fold change vs veh, ADK / RFU, RASSF2 / Fold change vs veh, RASSF2 / RFU, WIPF1 / Fold change vs veh, WIPF1 / RFU, LARP1B / Fold change vs veh, LARP1B / RFU, RASA1 / Fold change vs veh, RASA1 / RFU, RB1 / Fold change vs veh, RB1 / RFU, PPFIA1 / Fold change vs veh, PPFIA1 / RFU, MAT2A / Fold change vs veh, MAT2A / RFU, CCT5 / Fold change vs veh, CCT5 / RFU, WDR92 / Fold change vs veh, WDR92 / RFU, CUX1 / Fold change vs veh, CUX1 / RFU, TTC7A / Fold change vs veh, TTC7A / RFU, TMEM135 / Fold change vs veh, TMEM135 / RFU, DEPTOR / Fold change vs veh, DEPTOR / RFU, CPM / Fold change vs veh, CPM / RFU, DNAJB6 / Fold change vs veh, DNAJB6 / RFU, CACNA2D3 / Fold change vs veh, CACNA2D3 / RFU, DTX4 / Fold change vs veh, DTX4 / RFU, TFCP2 / Fold change vs veh, TFCP2 / RFU, GMCL1 /// GMCL1P1 / Fold change vs veh, GMCL1 /// GMCL1P1 / RFU, AEBP2 / Fold change vs veh, AEBP2 / RFU, SNHG1 /// SNORD22 /// SNORD25 /// SNORD26 /// SNORD27 /// SNORD28 /// SNORD29 /// SNORD31 / Fold change vs veh, SNHG1 /// SNORD22 /// SNORD25 /// SNORD26 /// SNORD27 /// SNORD28 /// SNORD29 /// SNORD31 / Fold change (Aza/veh), C12orf56 (ProbeSet 11735607_a_at) / Fold change (ACY-1035/veh), C12orf56 (ProbeSet 11735607_a_at) / Fold change (Aza/veh), FGFR1OP (ProbeSet 11751329_s_at) / Fold change (ACY-1035/veh), FGFR1OP (ProbeSet 11751329_s_at) / Fold change (Aza/veh), VPS36 (ProbeSet 11739960_a_at) / Fold change (ACY-1035/veh), VPS36 (ProbeSet 11739960_a_at) / RFU SYPL1 (11715823_x_at) / Fold change /veh SYPL1 (11715823_x_at) / RFU IGFBP7 (11715501_s_at) / Fold change /veh IGFBP7 (11715501_s_at) / RFU REEP3 (11722064_at) / Fold change /veh REEP3 (11722064_at) / RFU IGLL1 (11728026_x_at) / Fold change /veh IGLL1 (11728026_x_at): dose or concentration left out as unconfirmed. The note with it: ProbeSet 11729173_a_at; LIST D.

In the case of `Nc1ccc(-c2cccs2)cc1NC(=O)c1ccc2c(c1)cc(C1CC1)n2CCN1CCOCC1` [ACY-1035], the “RFU, SKA2” value came out at 338.69 RFU.
